Tests used:
[1] = tested on: slow reacting substance of anaphylaxis (SRS-A), isolated guinea pig ileum; assay: SRS-A Antagonism on Guinea Pig Ileum; settings: isolated guinea pig ileum strips; Tyrode's solution with atropine 5×10^-7 M and mepyramine 10^-6 M; rat SRS-A; read-out: Approximate concentration to give a 50% inhibition of a less than maximal response to SRS-A
Protocol: (§1) The compounds were tested for their ability to:
(b) antagonise the spasmogenic effects of slow reacting substance of anaphylaxis, SRS-A, on isolated guinea pig ileum.
(§2) Charles River Sprague Dawley male rats of 250-300 g. and Dunkin Hartley male white guinea pigs of 250-300 g. were used.
The compounds have been evaluated as direct antagonists of slow reacting substance of anaphylaxis (SRS-A) by assay using the isolated guinea pig ileum.
SRS-A rat was obtained from the peritoneal cavity of the rat after passive peritoneal anaphylaxis by a method based on that of R. P. Orange, D. J. Stechschulte and K. F. Austen, J. Immunology, 105, 1087 (1970) as described by J. W. Ross, H. Smith and B. A. Spicer 1976, Increased vascular permeability during passive peritoneal anaphylaxis in the rat. Int. Arch. Allergy appl. 51, 226. The sensitising serum containing antibody was produced in rats as described by J. W. Ross et. al., ibid.
2 ml of a 1 in 5 dilution of the sensitising serum was injected by the peritoneal route into recipient rats and after 2 hours 5 ml of Tyrode's solution containing 0.4 mg/ml ovalbumin (Sigma Grade III) and 50 μg/ml heparin was injected by the same route. Five minutes after challenge the rats were stunned and bled and the peritoneal fluids collected into polycarbonate tubes in ice. After centrifugation at 150 g. for five minutes the supernatants were combined, heated in a boiling water bath for five minutes, cooled and stored at -20° C. The combined peritoneal fluids contained SRS-A and were used in the antagonism studies.
The SRS-A arrays were carried out on isolated strips of guinea pig ileum in Tyrode's solution containing atropine 5×10^-7 M and mepyramine 10^-6 M as described by W. E. Brocklehurst, J. Physiology, 151, 416 (1960).
The activity of the antagonists was determined by their ability to reduce submaximal responses induced by SRS-A. The antagonists were added to the 4 ml bath in 0.1 ml volumes in aqueous solution half a minute before the addition of SRS-A and were present during induced contraction.

[2] = tested on: rat passive peritoneal anaphylaxis; assay: Rat Passive Peritoneal Anaphylaxis (PPA); type: in vivo; settings: Mean ± SEM, 5-7 rats per group; for Dye concentration in peritoneal fluid as % of mean of controls: Pontamine Sky Blue
Protocol: as §1
(a) inhibit rat passive peritoneal anaphylaxis; and
as §2
The method has been described previously. (Ross, Janet W., Smith, H. and Spicer, Barbara A. Increased vascular permeability during passive peritoneal anaphylaxis in the rat. Int. Arch. Allergy appl. Immun., 51, 226, 1976).
Rats were sensitised by giving an intraperitoneal injection of 0.5 ml of Bordetella pertussis vaccine (4×10^10 organisms/ml Burroughs Wellcome, London) and a subcutaneous injection of 0.5 ml of an emulsion of 100 mg of ovalbumin (chicken egg albumin, crystallised and lyophilised, grade 3, Sigma, London) in 2 ml of isotonic saline and 3 ml of Freud's incomplete adjuvant (Difco Laboratories, Michigan, USA).
The rats were bled by cardiac puncture, on day 18, the blood was pooled, and the serum separated, stored at -20° C. and thawed only before use.
Rats were each given an intraperitoneal injection of 2 ml of a 1:5 dilution of the rat anti-serum in isotonic saline. Two hours later 0.3 ml of a 5% solution of Pontamine Sky Blue (Raymond A. Lamb, London) in isotonic saline was injected intravenously, followed by an intraperitoneal injection of the test compound in 1 ml of saline; (control rats received 1 ml of saline); followed 30 seconds later by an intraperitoneal injection of 5 ml of Tyrode's solution containing 50 μg/ml heparin and 0.4 mg/ml of ovalbumin. The concentrations of the compounds were quoted as those in the 6 ml of fluid injected intraperitoneally. Exactly five minutes after challenge the rats were stunned and bled and their peritoneal fluids were collected by opening their peritoneal cavities over funnels into polycarbonate tubes in ice. The supernatants were separated from the cellular residue by centrifuging at 150 g. for five minutes and were retained for assay of dye and histamine. Any samples obviously contaminated with blood were not used for estimation of dye. Groups of at least five rats were used for each dose of compound and the treatments were randomised.
Dye was assayed within two hours by measurement of optical density (OD) at 625 nm.
For histamine assay 0.5 ml samples of the supernatants were added to 1 ml volumes of 12% trichloracetic acid and stored at -20° C. The deproteinised samples were assayed using an automated spectrofluorimetric system (Technicon Autoanalyser) by a method similar to that of Evans, D. P., Lewis, J. A. and Thomson, D. S.: (An automated fluorimetric assay for the rapid determination of histamine in biological fluids. Life Sci. 12, 327, 1973).

Structure (SMILES)	IC50 [1] [nM]	Histamine concentration in peritoneal fluid as % of mean of controls ([2]; 2 × 10^-5 M injected i.p.)	Dye concentration in peritoneal fluid as % of mean of controls ([2]; 2 × 10^-5 M injected i.p.)	Histamine concentration in peritoneal fluid as % of mean of controls ([2]; 2 × 10^-6 M injected i.p.)	Dye concentration in peritoneal fluid as % of mean of controls ([2]; 2 × 10^-6 M injected i.p.)	Histamine concentration in peritoneal fluid as % of mean of controls ([2]; 2 × 10^-7 M injected i.p.)	Dye concentration in peritoneal fluid as % of mean of controls ([2]; 2 × 10^-7 M injected i.p.)	Histamine concentration in peritoneal fluid as % of mean of controls ([2]; 2 × 10^-8 M injected i.p.)	Dye concentration in peritoneal fluid as % of mean of controls ([2]; 2 × 10^-8 M injected i.p.)
CCCc1c(OCCCOc2ccc3c(c2)C(=O)c2nn[nH]c2C3=O)ccc(C(C)=O)c1O [Example 1, 6-[3-(4-Acetyl-3-hydroxy-2-n-propylphenoxy)propoxy]4,9-dihydro-4,9-dioxo-1H-naphtho[2,3-d]-v-triazole]	~400	10 ± 1 % of mean of controls	32 ± 5 % of mean of controls	27 ± 8 % of mean of controls	58 ± 8 % of mean of controls	57 ± 11 % of mean of controls	63 ± 5 % of mean of controls		
CCCc1c(OCCCOc2cccc3c2C(=O)c2nn[nH]c2C3=O)ccc(C(C)=O)c1O [Example 3, 5-[3-(4-Acetyl-3-hydroxy-2-n-propylphenoxy)-propoxy]4,9-dihydro-4,9-dioxo-1H-naphtho[2,3-d]-v-triazole]	1000 to 10000	25 ± 3 % of mean of controls	57 ± 4 % of mean of controls	62 ± 11 % of mean of controls	94 ± 8 % of mean of controls				
CCCc1c(OCC(O)COc2ccc3c(c2)C(=O)c2nn[nH]c2C3=O)ccc(C(C)=O)c1O (centres unmarked) [Example 4, 6-[3-(4-Acetyl-3-hydroxy-2-n-propylphenoxy)2-hydroxypropoxy]-4,9-dihydro-4,9-dioxo-1H-naphtho[2,3-d]-v-triazole]	100 to 250					38 ± 4 % of mean of controls	58 ± 4 % of mean of controls	64 ± 11 % of mean of controls	72 ± 11 % of mean of controls

Source: patent publication US4769383A, “Dioxonaphthotriazoles having antiallergic activity” (Beecham Group p.l.c., priority 1981, dated 1988)
